Measurements reported in patent US5478832A, “Quinoline compounds” (The Green Cross Corporation, priority 1992, dated 1995).

target: T1, angiotensin II receptor (Rattus norvegicus, UniProt P25095); test: Inhibition of binding of angiotensin II to rat smooth muscle cells (125I-Tyr4-angiotensin II); conditions: 125I-AII; rat aorta-derived smooth muscle cells; room temperature, one hour; read-out: IC50, inhibitory activity to the binding of angiotensin II to its receptor
T1 sequence (P25095 1-359): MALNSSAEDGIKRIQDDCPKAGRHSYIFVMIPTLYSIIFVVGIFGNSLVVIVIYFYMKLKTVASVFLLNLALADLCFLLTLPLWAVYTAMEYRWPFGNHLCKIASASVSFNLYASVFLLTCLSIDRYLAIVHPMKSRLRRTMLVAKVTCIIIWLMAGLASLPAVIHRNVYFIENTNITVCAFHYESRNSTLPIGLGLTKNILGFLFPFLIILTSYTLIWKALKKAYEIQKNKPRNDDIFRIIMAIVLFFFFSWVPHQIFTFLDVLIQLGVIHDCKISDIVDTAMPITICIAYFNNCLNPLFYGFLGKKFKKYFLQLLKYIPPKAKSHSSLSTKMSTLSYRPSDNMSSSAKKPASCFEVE

Point of comparison: `CCc1nc2c(C)cc(C)nc2n1Cc1ccc2nc(-c3ccccc3C(=O)O)ccc2c1`, IC50 6.4 nM. Against it:
- CCCCc1nc(Cl)c(CO)n1Cc1ccc2nc(-c3ccccc3-c3nnn[nH]3)ccc2c1 [Example 11, {2-butyl-4-chloro-1-{[2-[2-(1H-tetrazol-5-yl)phenyl]quinolin-6-yl]methyl}-1H-imidazol-5-yl}methanol] — 2.6-fold lower, 2.5 nM
- CCCCc1nc(Cl)c(C=O)n1Cc1ccc2nc(-c3ccccc3C(=O)O)ccc2c1 — 7.8-fold higher, 50 nM
- CCc1nc2c(C)cc(C)nc2n1Cc1ccc2nc(-c3ccccc3-c3nnn[nH]3)cc(Cl)c2c1 [Example 21, 2-ethyl-5,7-dimethyl-3-{[4-chloro-2-[2-(1H-tetrazol-5-yl)phenyl]quinolin-6-yl]methyl}-3H-imidazo[4,5-b]pyridine] — within 1.5-fold, 7.7 nM
- CCCCc1nc(Cl)c(CO)n1Cc1ccc2nc(-c3ccccc3C(=O)O)ccc2c1 — 7-fold lower, 0.92 nM
- CCc1nc2c(C)cc(C)nc2n1Cc1ccc2nc(-c3ccccc3C(=O)OC)ccc2c1 [Example 12, methyl 2-{6-[(2-ethyl-5,7-dimethyl-3H-imidazo-[4,5-b]pyridin-3-yl)methyl]quinolin-2-yl}benzoate] — 69-fold higher, 440 nM
- CCc1nc2c(C)cc(C)nc2n1Cc1ccc2nc(-c3ccccc3-c3nnn[nH]3)ccc2c1 [Example 15, 2-ethyl-5,7-dimethyl-3-{[2-[2-(1H-tetrazol-5-yl)phenyl]quinolin-6-yl]methyl}-3H-imidazo[4,5-b]pyridine] — 6.8-fold lower, 0.94 nM
- CCCCc1nc2cccnc2n1Cc1ccc2nc(-c3ccccc3C(=O)O)ccc2c1 [Example 17] — 1.7-fold higher, 11 nM
